# Measurements: patent publication US20090281136A1, “PRASUGREL PHARMACEUTICAL FORMULATIONS” (priority 2008, published 2009)
# Assay: Drug-excipient compatibility study (impurity formation on storage at 40° C. and 75% relative humidity)
# Type: physicochemical
# Procedure: Prasugrel hydrochloride and mixtures with excipients in the weight ratios stated below are mixed well and sifted through an ASTM #40 mesh sieve. The mixture is placed into open glass vials, stored at 40° C. and 75% relative humidity for four weeks, and samples are analyzed at intervals to evaluate the extent of impurity formation. Values for impurities in the table below are calculated as percent by weight of the original prasugrel content.
structure (smiles),measurement,setting,value
"CC(=O)Oc1cc2c(s1)CCN(C(C(=O)C1CC1)c1ccccc1F)C2 (stereo not drawn) [Prasugrel, 5-[2-cyclopropyl-1-(2-fluorophenyl)-2-oxoethyl]-4,5,6,7-tetrahydrothieno[3,2-c]pyridin-2-yl acetate]","Total Impurities, 1 Week","1 week at 40° C. and 75% relative humidity, open glass vials",0.6547 percent by weight of the original prasugrel content
same,"Total Impurities, 2 Weeks","2 weeks at 40° C. and 75% relative humidity, open glass vials",0.6982 percent by weight of the original prasugrel content
same,"Total Impurities, 3 Weeks","3 weeks at 40° C. and 75% relative humidity, open glass vials",0.7488 percent by weight of the original prasugrel content
same,"Total Impurities, 4 Weeks","4 weeks at 40° C. and 75% relative humidity, open glass vials",0.8998 percent by weight of the original prasugrel content
same,"Total Impurities, Initial","Initial, open glass vials",0.6301 percent by weight of the original prasugrel content
same,Stability in the presence of the excipients studied,accelerated stability testing conditions,acceptable stability
